Measurements taken from US9981909B2 (Janssen Pharmaceutica NV, priority 2008, dated 2018).
Structures can show the parent of a compound that is named as a salt.

Target: rat 5-HT7 receptor (Rattus norvegicus (Rat), UniProt P32305)
Experiment: r5-HT7 binding assay, competitive radioligand binding with [3H]5-CT
Settings: rat 5-HT7 receptor, HEK-293 membranes
Experimental: Receptor binding was performed using membrane fractions prepared from the HEK-293 cell line recombinantly expressing rat 5-HT7 receptors (NCBI accession NM_022938). Compound affinity for the rat 5-HT7 receptor subtype was evaluated by competitive radioligand binding assays using 5-carboxamido[^3H]tryptamine ([^3H]5-CT) (Amersham Biosciences, cat. 90000403) detection. HitHunter™ cAMP assays are in-vitro based competitive immunoassays. The assay was performed on the HEK-293 cell line stably transfected with r5-HT7 receptor. Cells were pre-incubated with test compounds for 10 minutes. For antagonist testing, the cells were then challenged with 100 nM 5-CT for 20 minutes. Cells were then lysed and cAMP measured according to manufacturers protocol (Amersham, cat. NET791250UC) or [^3H]mesulergine (Amersham, cat. TRK1041). The assay was performed on membranes prepared from HEK-293 cells stably transfected with h5-HT6. Following centrifugation, membranes were resuspended and incubated for 60 min at room temperature with 1.7 nM [^3H]LSD in the presence of increasing concentration of test compounds. Nonspecific binding was defined in the presence of 10 μM clozapine (Tocris, cat. TRK1068). Homogenized HEK-293 membranes expressing the human SERT were incubated in 50 mM Tris-HCl (pH 7.5), 120 mM NaCl, 5 mM KCl with [^3H]-citalopram (3 nM) with or without test compounds. Nonspecific binding was determined in the presence of 10 μM fluoxetine. Radioactivity readouts and Ki values were performed as previously described for r5-HT7. […] Compounds were assayed in their free form or as salts, as indicated in the Examples section above.

Sequence of rat 5-HT7 receptor (P32305 1-435): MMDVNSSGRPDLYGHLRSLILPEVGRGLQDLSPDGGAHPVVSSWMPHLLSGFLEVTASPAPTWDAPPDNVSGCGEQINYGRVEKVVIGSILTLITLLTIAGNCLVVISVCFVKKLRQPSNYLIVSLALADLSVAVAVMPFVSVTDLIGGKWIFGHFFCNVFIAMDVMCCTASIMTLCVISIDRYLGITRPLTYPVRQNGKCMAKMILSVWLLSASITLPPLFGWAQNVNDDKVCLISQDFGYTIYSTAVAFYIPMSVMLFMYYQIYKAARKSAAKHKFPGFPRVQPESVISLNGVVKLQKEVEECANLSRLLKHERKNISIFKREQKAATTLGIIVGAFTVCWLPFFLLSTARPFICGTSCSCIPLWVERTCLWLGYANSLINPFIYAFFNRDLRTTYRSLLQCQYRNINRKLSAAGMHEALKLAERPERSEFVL

| Structure (SMILES) | Ki [nM] |
| --- | --- |
| CN1CCC(Oc2cc(Br)ccc2OCc2ccccc2)C1 (racemic) [Example 98, (±)-3-(2-Benzyloxy-5-bromo-phenoxy)-1-methyl-pyrrolidine] | 23 |
| CN1CCC(Oc2cc(Br)ccc2OCc2cccc(OS(C)(=O)=O)c2)C1 (racemic) [Example 99, (±)-Methanesulfonic acid 3-[4-bromo-2-(1-methyl-pyrrolidin-3-yloxy)-phenoxymethyl]-phenyl ester] | 5 |
| CN1CCC(Oc2ccccc2OCc2cccc(OS(C)(=O)=O)c2)C1 (racemic) [Example 100, (±)-Methanesulfonic acid 3-[2-(1-methyl-pyrrolidin-3-yloxy)-phenoxymethyl]-phenyl ester] | 150 |
| CC(Oc1ccc(Cl)cc1OC1CN(C(C)C)C1)c1cccc(C(F)(F)F)c1 (racemic) [Example 106, (±)-3-[5-Chloro-2-[1-(3-trifluoromethyl-phenyl)-ethoxy]-phenoxy]-1-isopropyl-azetidine] | 75 |
| CC(Oc1ccc(Cl)cc1OC1CNC1)c1ccc(C(F)(F)F)c(F)c1 (racemic) [Example 118, (±)-3-[5-Chloro-2-[1-(3-fluoro-4-trifluoromethyl-phenyl)-ethoxy]-phenoxy]-azetidine] | 90 |
| CC(Oc1ccc(Cl)cc1OC1CNC1)c1cc(F)cc(C(F)(F)F)c1 (racemic) [Example 119, (±)-3-[5-Chloro-2-[1-(3-fluoro-5-trifluoromethyl-phenyl)-ethoxy]-phenoxy]-azetidine] | 288 |
| CC(Oc1ccc(Cl)cc1OC1CNC1)c1cccc(SC(F)(F)F)c1 (racemic) [Example 120, (±)-3-[5-Chloro-2-[1-(3-trifluoromethylsulfanyl-phenyl)-ethoxy]-phenoxy]-azetidine] | 40 |
| CC(Oc1ccc(Cl)cc1OC1CNC1)c1cccc(C#N)c1 (racemic) [Example 125, (±)-3-[1-[2-(Azetidin-3-yloxy)-4-chloro-phenoxy]-ethyl]-benzonitrile] | 104 |
| CC(Oc1ccc(Cl)cc1OC1CNC1)c1cc(Cl)ccc1Cl (racemic) [Example 129, (±)-3-[5-Chloro-2-[1-(2,5-dichloro-phenyl)-ethoxy]-phenoxy]-azetidine trifluoroacetate] | 903 |
| CC(Oc1ccc(Cl)cc1OC1CCNCC1)c1cccc(OC(F)(F)F)c1 (racemic) [Example 137, (±)-4-[5-Chloro-2-[1-(3-trifluoromethoxy-phenyl)-ethoxy]-phenoxy]-piperidine] | 472 |
| CC(Oc1ccc(Cl)cc1OC1CCNCC1)c1ccccc1F (racemic) [Example 138, (±)-4-[5-Chloro-2-[1-(2-fluoro-phenyl)-ethoxy]-phenoxy]-piperidine] | 42 |
| CCC(Oc1ccc(Cl)cc1OC1CNC1)c1cccc(C(F)(F)F)c1 (racemic) [Example 140, (±)-3-[5-Chloro-2-[1-(3-trifluoromethyl-phenyl)-propoxy]-phenoxy]-azetidine] | 230 |
| CCC(Oc1ccc(Cl)cc1OC1CCNCC1)c1cccc(C(F)(F)F)c1 (racemic) [Example 141, (±)-4-[5-Chloro-2-[1-(3-trifluoromethyl-phenyl)-propoxy]-phenoxy]-piperidine] | 450 |
| FCC(Oc1ccc(Cl)cc1OC1CCNCC1)c1ccccc1 (racemic) [Example 144, (±)-4-[5-Chloro-2-(2-fluoro-1-phenyl-ethoxy)-phenoxy]-piperidine] | 304 |
| FC(F)(F)Oc1ccc(COc2ccc(Br)cc2OC2CNC2)cc1Cl [Example 11, 3-[5-Bromo-2-(3-chloro-4-trifluoromethoxy-benzyloxy)-phenoxy]-azetidine] | 53 |
| CN1CC(Oc2cc(Br)ccc2OCc2ccccc2Cl)C1 [Example 16, 3-[5-Bromo-2-(2-chloro-benzyloxy)-phenoxy]-1-methyl-azetidine] | 100 |
| CC(C)N1CC(Oc2cc(Br)ccc2OCc2cccc(F)c2)C1 [Example 20, 3-[5-Bromo-2-(3-fluoro-benzyloxy)-phenoxy]-1-isopropyl-azetidine] | 8 |
| Clc1cccc(COc2cc(Br)ccc2OC2CN(C3CCC3)C2)c1 [Example 23, 3-[4-Bromo-2-(3-chloro-benzyloxy)-phenoxy]-1-cyclobutyl-azetidine] | 121 |

Other lines, results leading:

| Ki [nM] | Structure (SMILES) |
| --- | --- |
| 94 | FC(F)(F)c1ccc(COc2ccc(Cl)cc2OC2CCCNC2)o1 (racemic) [Example 69, (±)-3-[5-Chloro-2-(5-trifluoromethyl-furan-2-ylmethoxy)-phenoxy]-piperidine] |
| 174 | Clc1ccc(OCc2ccccc2)c(OC2CCCNC2)c1 (racemic) [Example 70, (±)-3-(2-Benzyloxy-5-chloro-phenoxy)-piperidine] |
| 143 | FC(F)(F)c1cccc(COc2ccc(Cl)cc2OC2CCCNC2)c1 (racemic) [Example 71, (±)-3-[5-Chloro-2-(3-trifluoromethyl-benzyloxy)-phenoxy]-piperidine] |
| 9 | CN1CCC(Oc2cc(Br)ccc2OCc2cccc(Cl)c2)C1 (racemic) [Example 95, (±)-3-[5-Bromo-2-(3-chloro-benzyloxy)-phenoxy]-1-methyl-pyrrolidine] |
| 13 | COc1cccc(COc2ccc(Br)cc2OC2CCN(C)C2)c1 (racemic) [Example 96, (±)-3-[5-Bromo-2-(3-methoxy-benzyloxy)-phenoxy]-1-methyl-pyrrolidine] |
| 34 | CN1CCC(Oc2cc(Br)ccc2OCc2cccc(F)c2)C1 (racemic) [Example 97, (±)-3-[5-Bromo-2-(3-fluoro-benzyloxy)-phenoxy]-1-methyl-pyrrolidine] |
| 90 | CC(Oc1ccc(Cl)cc1OC1CN(C2CCC2)C1)c1cccc(C(F)(F)F)c1 (racemic) [Example 107, (±)-3-[5-Chloro-2-[1-(3-trifluoromethyl-phenyl)-ethoxy]-phenoxy]-1-cyclobutyl-azetidine] |
| 68 | CC(Oc1ccc(Cl)cc1OC1CNC1)c1ccccc1Cl (racemic) [Example 116, (±)-3-[5-Chloro-2-[1-(2-chloro-phenyl)-ethoxy]-phenoxy]-azetidine] |
| 210 | CC(Oc1ccc(Cl)cc1OC1CNC1)c1ccccc1C(F)(F)F (racemic) [Example 122, (±)-3-[5-Chloro-2-[1-(2-trifluoromethyl-phenyl)-ethoxy]-phenoxy]-azetidine] |
| 38 | CC(Oc1ccc(Cl)cc1OC1CNC1)c1ccc(Cl)c(Cl)c1 (racemic) [Example 126, (±)-3-[5-Chloro-2-[1-(3,4-dichloro-phenyl)-ethoxy]-phenoxy]-azetidine] |
| 63 | CC(Oc1ccc(Cl)cc1OC1CNC1)c1cccc(OC(F)(F)F)c1 (racemic) [Example 127, (±)-3-[5-Chloro-2-[1-(3-trifluoromethoxy-phenyl)-ethoxy]-phenoxy]azetidine] |
| 127 | CC(Oc1ccc(Cl)cc1OC1CNC1)c1ccc(F)c(F)c1 (racemic) [Example 128, (±)-3-[5-Chloro-2-[1-(3,4-difluoro-phenyl)-ethoxy]-phenoxy]-azetidine trifluoroacetate] |
| 371 | CC(Oc1ccc(Cl)cc1OC1CNC1)c1cc(F)ccc1F (racemic) [Example 130, (±)-3-[5-Chloro-2-[1-(2,5-difluoro-phenyl)-ethoxy]-phenoxy]-azetidine trifluoroacetate] |
| 20 | Fc1cccc(COc2ccc(Br)cc2OC2CN(C3CCC3)C2)c1 [Example 21, 3-[5-Bromo-2-(3-fluoro-benzyloxy)-phenoxy]-1-cyclobutyl-azetidine] |
